Measured values reported in patent publication US20180064742A1, “PET IMAGING TRACER FOR IMAGING PROSTATE CANCER” (THE REGENTS OF THE UNIVERSITY OF CALIFORNIA, priority 2015, published 2018).

Tested on: tumors
Assay: In vivo accumulation in tumors versus benign tissue, with tumor alkalinization models
From the text: Solid tumors are hypoxic with altered metabolism, resulting in secretion of acids into the extracellular matrix and lower relative pH, a feature associated with local invasion and metastasis. Therapeutic and diagnostic agents responsive to this microenvironment may improve tumor-specific delivery. In various embodiments, the invention reflects a general strategy whereby caged small-molecule drugs or imaging agents liberate their parent compounds in regions of low interstitial pH. In this manuscript, we present a new acid-labile prodrug method based on the glycosylamine linkage, and its application to a class of positron emission tomography (PET) imaging tracers, termed [^18F] fluorodeoxyglycosyl amines ([^18F] FDG amines). [^18F]FDG amines operate via a proposed two-step mechanism, in which an acid-labile precursor decomposes to form a common radiotracer, e.g., 2-deoxy-2-[18F]fluoro-D-glucose, which is subsequently accumulated by glycan, e.g., glucose, avid cells. […]
Imaging was performed using standard micro-positron emission tomography (microPET) techniques and data analysis. […] The resulting images are analyzed using open source Amide software (FIGS. 6, 13). For quantification of uptake in tissues, regions of interest (ROI) are drawn over tissues using the CT portion of the exam. […]

OC[C@H]1OC(NCc2ccc(-c3ccccc3)cc2)[C@H]([18F])[C@@H](O)[C@@H]1O (some centres unmarked)
relative accumulation in tumors over benign tissue (in vivo): greater relative accumulation in tumors over benign tissue | effect of tumor alkalinization on tumor accumulation (sodium bicarbonate treatment, or overexpression of carbonic anhydrase): could be attenuated upon tumor alkalinization
